Results on six compounds are retold here after US20070249545A1, “DIHYDROFOLATE REDUCTASE INHIBITION BY EPIGALLOCATECHIN GALLATE COMPOUNDS” (priority 2004, published 2007).

Where two headings read alike, the source gives them in different places.

The target in one experiment is T1, bovine liver DHFR (Bos taurus, UniProt P00376).
T1 construct: from tissue; host or cells: bovine liver
T1 sequence (P00376 1-187): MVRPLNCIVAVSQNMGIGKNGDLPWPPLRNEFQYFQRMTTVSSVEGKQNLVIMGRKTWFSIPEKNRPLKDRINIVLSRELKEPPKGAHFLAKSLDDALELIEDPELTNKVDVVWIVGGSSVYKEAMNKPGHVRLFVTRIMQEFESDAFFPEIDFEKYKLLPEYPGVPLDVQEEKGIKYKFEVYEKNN
Description: Kinetic analysis of inhibition of bovine liver DHFR. The class given is biochemical. Here is the method:
The activity of DHFR was determined at 25° C. by following the decrease of NADPH and DHF by absorbance measurements at 340 nm (ε=11,800 M^−1 cm^−1) by using a Perkin-Elmer Lambda-2 spectrophotometer with cuvettes of 1.0 cm light-path.
Experiments were performed at pH 7.58 and 25° C. in a buffer containing 2-(N-morpholino)ethanesulfonic acid (MES, 25 mM), sodium acetate (25 mM), tris(hydroxymethyl)aminomethane (Tris 50 mM), and NaCl (100 mM). To prevent the oxidation of catechins, the reaction mixture contained 1 mM ascorbic acid. The pH of the reaction was measured before and after of the experiment. The assays were started by the addition of enzyme. In the absence of the enzyme, the rate of change of absorbance was negligible. […]
Progress curves for the slow, tight-binding inhibition of bovine liver DHFR by EGCG were determined by continuously monitoring the disappearance of NADPH and DHF after initiation of the reaction by the addition of 3.3 nM enzyme. Reaction mixtures contained buffer, NADPH (100 μM), DHF (20 μM) and EGCG. Assuming that the concentration of free inhibitor is not substantially altered by the formation of an enzyme-NADPH-inhibitor complex, the progress curve for the inhibition in the presence of saturating NADPH is described by Eqn. (1): P=vst+(v0−vs)(1−exp(−k′t))/k′
where vs, v0 and k′ represent the steady-state velocity, initial velocity and apparent first-order rate constant, respectively.
The values of k′ at different EGCG concentrations were obtained by non-linear regression analysis of the progress curves. KI and KI* denote the respective dissociation constants for the initial and equilibrium binding of inhibitors to the enzyme-NADPH complex (FIG. 5).

The target of experiment [1] is T2, recombinant human DHFR (rHDHFR) (Homo sapiens, UniProt P00374).
T2 sequence (P00374 1-187): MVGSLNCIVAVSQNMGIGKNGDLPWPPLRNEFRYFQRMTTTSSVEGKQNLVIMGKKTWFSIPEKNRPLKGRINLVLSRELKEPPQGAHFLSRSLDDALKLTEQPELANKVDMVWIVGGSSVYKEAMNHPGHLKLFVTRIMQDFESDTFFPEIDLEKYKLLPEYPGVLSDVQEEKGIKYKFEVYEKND
The experiment in a line: Inhibition of human DHFR by tea catechins. Format: biochemical.

The target of a further experiment is S. maltophilia DHFR (Stenotrophomonas maltophilia, UniProt B2FPG1). The class given is biochemical. The conditions noted are these: for Km: partially purified S. maltophilia DHFR, substrate. As for the experimental part:
For the DHFR extraction, S. maltophilia strain number 1, was inoculated onto fresh agar 24 h before using. Then, liquid medium was inoculated with the strain and these broth cultures were incubated at 37° C. and shaken at 100 cycles per min. Solid medium was MacConkey agar (Oxoid Ltd., Basingstoke, England). Liquid medium was Brilliant Green Bile 2% broth (Oxoid). Bacteria were grown to mid-log phase, harvested by centrifugation (1,600 rpm 30 min) and washed twice in 50 mM phosphate buffer (pH 7.0) followed each time by a new centrifugation (1,600 rpm 5 min). Cell lysis, centrifugation, and dialysis were carried out between 4 and 8° C. Fast protein liquid chromatography (FPLC) purification steps were performed at room temperature. […] After centrifugation at 36,000 rpm for 30 min to remove cell debris, the supernatant was filtered. This supernatant was brought to 40% saturation with solid ammonium sulfate under continuous stirring. After 1 h the solution was centrifuged at 35,000 rpm for 30 min and the pellet discarded. Additional ammonium sulfate was added to the clear supernatant to give 90% saturation and stirred for 1 h. After centrifugation, the precipitates were suspended in 2 ml of buffer B (10 mM potassium phosphate buffer, pH 7.4, 2 mM β-mercaptoethanol). Concentrated enzyme (2 ml samples) was loaded onto a […] gel-filtration column (Sephacryl S-75 16/60 Hi-Prep, Amersham Pharmacia Biotech Europe GmbH, Barcelona, Spain), equilibrated with buffer B and eluted at 0.5 ml/min. The active fractions were concentrated and stored at −80° C. until used.
Initial velocity inhibition experiments were carried out for the inhibition studies of S. maltophilia with TMP and EGCG. One substrate (NADPH) was held constant at saturating concentration while the other substrate (DHF) and the inhibitor (TMP or EGCG) were varied. To prevent the oxidation of EGCG the reaction mixture contained 1 mM N-acetylcysteine (Sigma). For MTX inhibition the slow development of […] inhibition was determined by continuously monitoring the disappearance of NADPH and DHF after initiation of the reaction by the addition of DHFR. Reaction mixtures contained buffer, NADPH (100 μM), DHF (20 μM), and various concentrations of MTX. The extent of recovery of enzymatic activity following inhibition induced by preincubation with DHFR inhibitors was determined as follows. DHFR was preincubated for 30 min at 25° C. in the buffer mixture containing MTX, TMP or EGCG. An aliquot of the incubation mixture was then diluted 500-fold into a reaction mixture containing buffer mixture, NADPH (100 μM), and DHF (20 μM). Recovery of enzyme activity was followed by continuous monitoring at 340 nm.
Provided that the concentration of free inhibitor is not substantially altered by the formation of an enzyme-NADPH-inhibitor complex, the progress curve for the inhibition in the presence of saturating NADPH can be described by Eqn. 1 (as above): P=vst+(v0−vs)(1−exp(−kobst))/kobs • where vs, v0 and kobs represent the steady-state velocity, initial velocity and apparent first-order rate constant, respectively. The apparent first-order rate constant is related to the inhibitor concentration by Eqn. 2, where Ki denotes the dissociation constants for the initial binding of MTX to the enzyme-NADPH complex. [formula]

For another experiment, the system named is L1210 cells. The experiment in a line: EGCG cytotoxicity / growth of L1210 cells. The class given is cell-based, mouse. The conditions noted are these: L1210; hypoxanthine-thymidine (HT) medium; EGCG 20 μM. Here is the method:
L1210 cells were plated at a density of 10,000 cells/ml in 96-well plates with a “standard folate” RPMI 1640 medium supplemented with 10% FCS. Reversion experiments were carried out in an HT medium and/or by adding 50 μM ascorbic acid (AA). Cell injury was evaluated by a calorimetric assay for mitochondrial function using the MTT test.^29
The effect of different EGCG concentrations on L1210 cell growth after 29 h of treatment at two different folic acid concentrations was determined. The cells were previously adapted over a period of 2-3 days to grow in folate-free RPMI 1640 medium supplemented with 10% dialyzed FCS and 2 mM glutamine. This medium is subsequently referred to as LF (low folate). For the cytotoxicity assay, the cells were grown in LF media supplemented with folic acid (3 μM or 300 nM). Treatments were carried out in triplicate, and each experiment performed at least twice. Cell growth was determined by two different methods, Coulter counter Z2 and hemocytometer (FIG. 7). IC50 values were determined at each folic acid concentration added to the medium.
The growth-inhibitory effects of 10 μM EGCG at various folic acid concentrations were determined at two different time intervals. L1210 cells were cultured in a LF medium supplemented with the corresponding folic acid concentration. The data were obtained by using a Coulter counter and hemocytometer and expressed assuming a zero percentage of growth inhibition for untreated control (FIG. 8). Cells were maintained in the corresponding medium with 100 μg/ml of penicillin and streptomycin at 37° C. in a humid 7.5% CO2, […] environment for all the experiments.

In another experiment the test system is p16. Description: p16 methylation status in Caco-2 cells. The conditions noted are these: EGCG 20 μM, 7-days treatment.

Sequence of S. maltophilia DHFR (B2FPG1 entry or part of it): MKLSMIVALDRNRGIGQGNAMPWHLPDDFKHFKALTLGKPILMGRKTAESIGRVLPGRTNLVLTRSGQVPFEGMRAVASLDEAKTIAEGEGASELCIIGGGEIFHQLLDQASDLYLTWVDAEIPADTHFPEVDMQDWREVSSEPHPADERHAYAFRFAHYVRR

With `Oc1cc(O)c2c(c1)O[C@H](c1cc(O)c(O)c(O)c1)[C@H](O)C2` [EGC, (−)-epigallocatechin, reference compound], the “inhibition of DHFR activity” value against bovine liver DHFR is given as “did not inhibit”. Moreover, the “inhibition of rHDHFR activity” value in experiment [1] is “did not inhibit”.
For orientation: Km means the substrate concentration at which the rate is half of its maximum. In the case of `Nc1nc(=O)c2c([nH]1)NCC(CNc1ccc(C(=O)N[C@@H](CCC(=O)O)C(=O)O)cc1)=N2` [DHF, 7,8-dihydrofolate], the Km on S. maltophilia DHFR (pH 8.0) was determined as 1.8 µM.
As a reminder, the Ki is the equilibrium dissociation constant of an inhibitor or competing ligand from its target. Low values mean a stronger hold on the target, high ones a looser hold on the target. In the case of `COc1cc(Cc2cnc(N)nc2N)cc(OC)c1OC` [trimethoprim], on S. maltophilia DHFR, the Ki stood at 4690 nM, the “Type of inhibition observed” value is “competitive (reversible)” and the “effect of preincubation of the enzyme with inhibitor” value is given as “did not produce any measurable inhibition”.
Take `O=C(O[C@@H]1Cc2c(O)cc(O)cc2O[C@@H]1c1ccc(O)c(O)c1)c1cc(O)c(O)c(O)c1` [ECG, (−)-epicatechin gallate]: at bovine liver DHFR, the “inhibition of DHFR activity” value is “potent inhibitor”, the k5 came out at 0.11 min⁻¹, the k5/k6 was 7.1 ratio and the k6 was determined as 0.015 min⁻¹. At bovine liver DHFR (KI*, equilibrium binding to enzyme-NADPH complex), this compound gave a Ki of 6.55 nM. On bovine liver DHFR (KI, initial binding to enzyme-NADPH complex, pH 7.58, 25° C.), this compound came in with a Ki of 51.3 nM. Further, the “inhibition of rHDHFR activity” value in experiment [1] is “potent inhibitors”.
Turning to `CN(Cc1cnc2nc(N)nc(N)c2n1)c1ccc(C(=O)N[C@@H](CCC(=O)O)C(=O)O)cc1` [methotrexate], the “Type of inhibition observed” value on S. maltophilia DHFR (S. maltophilia DHFR) is listed as “competitive (slow-”. Also, the k1 at S. maltophilia DHFR (S. maltophilia DHFR, calculated by using Eqn. 3) was 6.17e+07 M⁻¹ s⁻¹. In addition, on S. maltophilia DHFR (S. maltophilia DHFR, pH 8.0), the “rate constant k2” value turned out to be 0.0011 s⁻¹. In addition, the “growth inhibition in HT medium” value in the experiment with L1210 cells is on record as “greatly attenuated”. Besides, the p16 methylation pattern result in the experiment with p16 was “reversal of hypermethylation was observed”.
`NC(=O)C1=CN([C@@H]2O[C@H](COP(=O)(O)OP(=O)(O)OC[C@H]3O[C@@H](n4cnc5c(N)ncnc54)[C@H](OP(=O)(O)O)[C@@H]3O)[C@@H](O)[C@H]2O)C=CC1` [NADPH]: the Km at S. maltophilia DHFR (pH 8.0) is 12 µM.
